# Assay results reported in patent US8399465B2, “Compounds with two fused bicyclic heteroaryl moieties as modulators of leukotriene A4 hydrolase” (Janssen Pharmaceutica NV, priority 2009, dated 2013).
# Counter-ions that a name gives are not always drawn.
# Assays:
# [1] = system: LTB4 production in murine blood (LTA4H); experiment: LTB4 production by calcium ionophore-stimulated murine blood for LTA4H inhibitor activity; format: cell-based, CD-1 mice; conditions: Mus musculus; murine blood diluted 1 in 15, A23187 stimulated; single determination or average; mark after value = form tested: ′ free base, ″ hydrochloride, ^ formate; read-out: IC50
# How it was run: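 LTB4 was measured by ELISA in supernatants after calcium ionophore A23187 stimulation (final 7 μg/mL, 30 min, 37° C) of CD-1 mouse blood collected on heparin. Compound was preincubated with the blood for 15 min beforehand. Values come from one determination or average several.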
# [2] = biological target: T1, recombinant human LTA4 hydrolase (rhLTA4H) (Homo sapiens, UniProt P09960); experiment: Recombinant human LTA4 hydrolase assay for LTA4 hydrolase inhibitor activity; format: biochemical; conditions: rhLTA4H, LTB4 by immunoassay; single determination or average of two or more; mark after value = form tested: ′ free base, ″ hydrochloride, ^ formate; read-out: IC50
# T1 construct: made in house; host or cells: Spodoptera frugiperda (Sf-9) cells, baculovirus (pFastBac1)
# T1 sequence (P09960 1-611): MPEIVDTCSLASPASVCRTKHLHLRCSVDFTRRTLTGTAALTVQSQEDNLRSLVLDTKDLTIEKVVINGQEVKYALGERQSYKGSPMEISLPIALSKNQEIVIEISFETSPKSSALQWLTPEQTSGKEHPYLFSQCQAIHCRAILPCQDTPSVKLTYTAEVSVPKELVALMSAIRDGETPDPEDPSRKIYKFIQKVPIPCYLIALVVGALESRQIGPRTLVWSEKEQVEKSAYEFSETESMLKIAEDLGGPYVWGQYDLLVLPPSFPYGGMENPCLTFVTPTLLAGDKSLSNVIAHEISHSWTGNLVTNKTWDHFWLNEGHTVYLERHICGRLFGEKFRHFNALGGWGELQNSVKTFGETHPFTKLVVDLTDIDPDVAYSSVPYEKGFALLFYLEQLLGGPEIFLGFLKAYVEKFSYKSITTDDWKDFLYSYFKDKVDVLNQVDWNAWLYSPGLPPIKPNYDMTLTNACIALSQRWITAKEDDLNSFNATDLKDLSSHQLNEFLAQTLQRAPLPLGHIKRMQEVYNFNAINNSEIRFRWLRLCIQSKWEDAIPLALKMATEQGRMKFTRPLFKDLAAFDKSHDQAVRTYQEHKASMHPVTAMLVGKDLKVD
# How it was run: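 LTB4 formation, measured by enzyme immunoassay, was the read-out. The enzyme, recombinant human LTA4H expressed in Sf-9 insect cells (10 ng per reaction), was exposed to compound for 10 min at room temperature before hydrolysed-ester LTA4 substrate was added for 30 min. Enzyme-free negatives were included.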
SMILES,IC50 [1],IC50 [2]
"CC(=O)N[C@H]1C[C@H]2CC[C@@H](C1)N2CCc1coc2cc(Oc3nc4ccccc4s3)ccc12 [Example 129, meso-endo-N-(8-{2-[6-(Benzothiazol-2-yloxy)-benzofuran-3-yl]-ethyl}-8-aza-bicyclo[3.2.1]oct-3-yl)-acetamide]",180 nM,13 nM
"CC(=O)N1CC2CC(CN(Cc3coc4cc(Oc5nc6ncccc6s5)ccc34)C2)C1 [Example 352, 1-{7-[6-(Thiazolo[4,5-b]pyridin-2-yloxy)-benzofuran-3-ylmethyl]-3,7-diaza-bicyclo[3.3.1]non-3-yl}-ethanone]",110 nM,50 nM
"COC(=O)CC1CCN(Cc2c[nH]c3cc(Oc4nc5ccccc5s4)ccc23)CC1 [Example 141, {1-[6-(Benzothiazol-2-yloxy)-1H-indol-3-ylmethyl]-piperidin-4-yl}-acetic acid methyl ester]",640 nM,20 nM
"CCOC(=O)C1CCN(Cc2c[nH]c3cc(Oc4nc5ccccc5s4)ccc23)CC1 [Example 139, 1-[6-(Benzothiazol-2-yloxy)-1H-indol-3-ylmethyl]-piperidine-4-carboxylic acid ethyl ester]",467 nM,12 nM
"CN(Cc1ccccc1)Cc1c[nH]c2cc(Oc3nc4ccccc4s3)ccc12 [Example 5, [6-(Benzothiazol-2-yloxy)-1H-indol-3-ylmethyl]-benzyl-methyl-amine]",901 nM,54 nM
"c1ccc(CNCc2coc3cc(Oc4nc5ncccc5s4)ccc23)cc1 [Example 344, Benzyl-[6-(thiazolo[4,5-b]pyridin-2-yloxy)-benzofuran-3-ylmethyl]-amine]",100 nM,21 nM
"O=C(C1CC1)N1CCN(Cc2coc3cc(Oc4nc5ncccc5s4)ccc23)CC1 [Example 276, Cyclopropyl-{4-[6-(thiazolo[4,5-b]pyridin-2-yloxy)-benzofuran-3-ylmethyl]-piperazin-1-yl}-methanone formate]",77 nM,3 nM
"O=C(c1ccoc1)N1CC2CN(Cc3coc4cc(Oc5nc6ncccc6s5)ccc34)CC2C1 (stereo not shown) [Example 359, Furan-3-yl-{5-[6-(thiazolo[4,5-b]pyridin-2-yloxy)-benzofuran-3-ylmethyl]-hexahydro-pyrrolo[3,4-c]pyrrol-2-yl}-methanone]",190 nM,8 nM
"CC(C)CNCc1coc2cc(Oc3nc4ncccc4s3)ccc12 [Example 304, Isobutyl-[6-(thiazolo[4,5-b]pyridin-2-yloxy)-benzofuran-3-ylmethyl]-amine formate]",24 nM,3 nM
"CC1CCN(Cc2coc3cc(Oc4nc5ncccc5s4)ccc23)CC1 [Example 286, 2-[3-(4-Methyl-piperidin-1-ylmethyl)-benzofuran-6-yloxy]-thiazolo[4,5-b]pyridine formate]",55 nM,1 nM
"c1ccc(CCN2CCN(Cc3coc4cc(Oc5nc6ncccc6s5)ccc34)CC2)cc1 [Example 291, 2-[3-(4-Phenethyl-piperazin-1-ylmethyl)-benzofuran-6-yloxy]-thiazolo[4,5-b]pyridine formate]",130 nM,14 nM
"O=c1[nH]ncn1C1CCN(Cc2coc3cc(Oc4nc5ncccc5s4)ccc23)CC1 [Example 351, 4-{1-[6-(Thiazolo[4,5-b]pyridin-2-yloxy)-benzofuran-3-ylmethyl]-piperidin-4-yl}-2,4-dihydro-[1,2,4]triazol-3-one]",94 nM,2 nM
"Cc1ccnc2nc(Oc3ccc4c(CN5CCOCC5)c[nH]c4c3)sc12 [Example 57, 7-Methyl-2-(3-morpholin-4-ylmethyl-1H-indol-6-yloxy)-thiazolo[4,5-b]pyridine]",444 nM,93 nM
"c1ccc2sc(Oc3ccc4cc(CN5CCCCC5)[nH]c4c3)nc2c1 [Example 67, 2-(2-Piperidin-1-ylmethyl-1H-indol-6-yloxy)-benzothiazole]",295 nM,34 nM

# The remaining molecules from weak to strong by IC50 [1], led by results:
IC50 [1],IC50 [2],SMILES
840 nM,95 nM,"c1ccc2sc(Oc3ccc4c(CN5CCOCC5)coc4c3)nc2c1 [Example 165, 2-(3-Morpholin-4-ylmethyl-benzofuran-6-yloxy)-benzothiazole]"
690 nM,47 nM,"O=C1Cc2cc(F)ccc2N1Cc1coc2cc(Oc3nc4ncccc4s3)ccc12 [Example 403, 5-Fluoro-1-[6-(thiazolo[4,5-b]pyridin-2-yloxy)-benzofuran-3-ylmethyl]-1,3-dihydro-indol-2-one]"
260 nM,52 nM,"NC(=O)N1C[C@H]2C[C@@H]1CN2Cc1cc2ccc(Oc3nc4ncccc4s3)cc2o1 [Example 193, (1R,4R)-5-[6-(Thiazolo[4,5-b]pyridin-2-yloxy)-benzofuran-2-ylmethyl]-2,5-diaza-bicyclo[2.2.1]heptane-2-carboxylic acid amide]"
200 nM,50 nM,"O=C(c1coc2cc(Oc3nc4ncccc4s3)ccc12)N1CCCCC1 [Example 383, Piperidin-1-yl-[6-(thiazolo[4,5-b]pyridin-2-yloxy)-benzofuran-3-yl]-methanone]"
180 nM,45 nM,"c1ccc2sc(Oc3ccc4c(CN5CC6CNCC6C5)c[nH]c4c3)nc2c1 (stereo not shown) [Example 51, 2-[3-(Hexahydro-pyrrolo[3,4-c]pyrrol-2-ylmethyl)-1H-indol-6-yloxy]-benzothiazole 2HCl]"
130 nM,29 nM,"CCN(CC)C1CCN(Cc2coc3cc(Oc4nc5ncccc5s4)ccc23)C1 (stereo not shown) [Example 327, Diethyl-{1-[6-(thiazolo[4,5-b]pyridin-2-yloxy)-benzofuran-3-ylmethyl]-pyrrolidin-3-yl}-amine]"
118 nM,2 nM,"NC(=O)C1CCN(Cc2c[nH]c3cc(Oc4nc5ncccc5s4)ccc23)CC1 [Example 17, 1-[6-(Thiazolo[4,5-b]pyridin-2-yloxy)-1H-indol-3-ylmethyl]-piperidine-4-carboxylic acid amide]"
97 nM,88 nM,"NC(=O)N1CC2CN(Cc3cc4cc(Oc5nc6ncccc6s5)ccc4o3)CC2C1 (stereo not shown) [Example 91, 5-[5-(Thiazolo[4,5-b]pyridin-2-yloxy)-benzofuran-2-ylmethyl]-hexahydro-pyrrolo[3,4-c]pyrrole-2-carboxylic acid amide]"
85 nM,15 nM,"CN(Cc1ccccc1)Cc1cc2cc(Oc3nc4ncccc4s3)ccc2o1 [Example 114, Benzyl-methyl-[5-(thiazolo[4,5-b]pyridin-2-yloxy)-benzofuran-2-ylmethyl]-amine]"
78 nM,26 nM,"c1csc(CN2CCN(Cc3coc4cc(Oc5nc6ncccc6s5)ccc34)CC2)c1 [Example 325, 2-[3-(4-Thiophen-2-ylmethyl-piperazin-1-ylmethyl)-benzofuran-6-yloxy]-thiazolo[4,5-b]pyridine]"
74 nM,5 nM,"CC(=O)N1CCN(Cc2cc3cc(Oc4nc5ncccc5s4)ccc3o2)CC1 [Example 259, 1-{4-[5-(Thiazolo[4,5-b]pyridin-2-yloxy)-benzofuran-2-ylmethyl]-piperazin-1-yl}ethanone formate]"
17 nM,12 nM,"c1cnc2nc(Oc3ccc4c(CNC5CCCC5)coc4c3)sc2c1 [Example 298, Cyclopentyl-[6-(thiazolo[4,5-b]pyridin-2-yloxy)-benzofuran-3-ylmethyl]-amine]"
